Measurements from ChEMBL document CHEMBL3872204, “Synthesis and immunopotentiating activity of novel isoxazoline functionalized coumarins” (Eur J Med Chem, 2016).
Active and inactive are the calls of the source.

How the values were obtained:
Assay type in all cases: functional, cell-based
Splenic lymphocyte [1] = assay: Immunopotentiating activity in splenic lymphocytes (unknown origin) assessed as effect on proliferation by measuring cell viability at 10 ug/ml pretreated followed by incubation of lymphocytes with LPS for 48 hrs by MTT assay
Splenic lymphocyte [2] = assay: Immunopotentiating activity in splenic lymphocytes (unknown origin) assessed as effect on proliferation by measuring cell viability at 0.1 to 1 ug/ml pretreated followed by incubation of lymphocytes with ConA for 48 hrs by MTT assay
Splenic lymphocyte [3] = assay: Immunopotentiating activity in splenic lymphocytes (unknown origin) assessed as effect on proliferation by measuring cell viability at 10 ug/ml pretreated followed by incubation of lymphocytes with ConA for 48 hrs by MTT assay
Splenic lymphocyte [4] = assay: Immunopotentiating activity in splenic lymphocytes (unknown origin) assessed as effect on proliferation by measuring cell viability at 0.1 to 1 ug/ml pretreated followed by incubation of lymphocytes with LPS for 48 hrs by MTT assay
Splenic lymphocyte [5] = assay: Immunopotentiating activity in splenic lymphocytes (unknown origin) assessed as effect on proliferation by measuring cell viability pretreated followed by incubation of lymphocytes with LPS for 48 hrs by MTT assay
Splenic lymphocyte [6] = assay: Immunopotentiating activity in splenic lymphocytes (unknown origin) assessed as effect on proliferation by measuring cell viability pretreated followed by incubation of lymphocytes with ConA for 48 hrs by MTT assay

Measured: Activity

O=c1ccc2ccc(OCC3CC(c4ccc([N+](=O)[O-])cc4)=NO3)cc2o1 (stereo not given)
active: Splenic lymphocyte [1] | Splenic lymphocyte [2] | Splenic lymphocyte [3] | Splenic lymphocyte [4]

O=c1ccc2ccc(OCC3CC(c4ccc(Cl)cc4)=NO3)cc2o1 (stereo not given)
active: Splenic lymphocyte [1] | Splenic lymphocyte [2] | Splenic lymphocyte [3] | Splenic lymphocyte [4]

Cc1ccc(C2=NOC(COc3ccc4ccc(=O)oc4c3)C2)cc1 (stereo not given)
active: Splenic lymphocyte [5] Dose-dependent effect | Splenic lymphocyte [6] Dose-dependent effect

O=c1ccc2ccc(OCC3CC(c4cccc5ccccc45)=NO3)cc2o1 (stereo not given)
active: Splenic lymphocyte [1] | Splenic lymphocyte [2] | Splenic lymphocyte [3] | Splenic lymphocyte [4]

O=c1ccc2ccc(OCC3CC(c4ccc(Br)cc4)=NO3)cc2o1 (stereo not given)
active: Splenic lymphocyte [1] | Splenic lymphocyte [2] | Splenic lymphocyte [3] | Splenic lymphocyte [4]

COc1cccc(C2=NOC(COc3ccc4ccc(=O)oc4c3)C2)c1 (stereo not given)
active: Splenic lymphocyte [5] Dose-dependent effect | Splenic lymphocyte [6] Dose-dependent effect

Cc1ccccc1C1=NOC(COc2ccc3ccc(=O)oc3c2)C1 (stereo not given)
active: Splenic lymphocyte [5] Dose-dependent effect | Splenic lymphocyte [6] Dose-dependent effect

O=c1ccc2ccc(OCC3CC(c4ccc(F)cc4)=NO3)cc2o1 (stereo not given)
active: Splenic lymphocyte [1] | Splenic lymphocyte [2] | Splenic lymphocyte [3] | Splenic lymphocyte [4]

O=c1ccc2ccc(O)cc2o1
active: Splenic lymphocyte [1] | Splenic lymphocyte [2] | Splenic lymphocyte [3] | Splenic lymphocyte [4]
